Assay results from patent publication US8222417B2, “Compound having 11β-HSD1 inhibitory activity” (Taisho Pharmaceutical Co., Ltd, priority 2007, dated 2012).

Each compound was assayed against T1, 11β-HSD1 (Homo sapiens, UniProt P28845) (assay: 11β-HSD1 inhibition test (human liver microsome, HTRF cortisol detection)). Settings: human liver microsome as enzyme source; cortisone 100 nM; 20° C., 80 minutes; generated cortisol quantified by HTRF.
T1 construct: human liver microsome (enzyme source, Tissue Transformation Technologies); tissue Tissue Transformation Technologies; host or cells: human liver microsomes
T1 sequence (P28845 whole entry): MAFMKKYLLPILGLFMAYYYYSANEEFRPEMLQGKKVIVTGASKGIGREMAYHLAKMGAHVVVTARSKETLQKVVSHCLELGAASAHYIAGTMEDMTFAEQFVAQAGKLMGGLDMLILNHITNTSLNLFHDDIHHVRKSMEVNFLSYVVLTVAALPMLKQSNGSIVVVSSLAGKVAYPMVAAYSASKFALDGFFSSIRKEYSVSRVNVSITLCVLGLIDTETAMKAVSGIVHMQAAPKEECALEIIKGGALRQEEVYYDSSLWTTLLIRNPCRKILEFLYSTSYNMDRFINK
Assay type: biochemical
Experimental: Test Example [11β-HSD1 Inhibition Test]
Test Compounds were Evaluated as Follows.
11β-HSD1 enzyme reaction was performed in a reaction solution of 100 μl total volume using 96-well polypropylene microplates. The reaction solution was prepared in 30 mM Tris-HCl (pH 7.4)/1 mM EDTA buffer to contain NADPH at a final concentration of 100 μM, G6P at a final concentration of 1 mM, human liver microsome (enzyme source, Tissue Transformation Technologies) at a final concentration of 0.8 μg/ml and 10 μl of a test compound dissolved in DMSO. The enzyme reaction was initiated by addition of cortisone at a final concentration of 100 nM. After incubation at 20° C. for 80 minutes, 10 μl of 1 mM 18β glycyrrhetinic acid, which is a non-specific inhibitor, was added to stop the reaction. Next, the amount of generated cortisol was quantified with a detection kit (Sceti Medical Labo K.K., Japan) according to the HTRF (Homogeneous Time-Resolved Fluorescence) method. This system detects fluorescence resonance energy transfer between europium-labeled anti-cortisol antibody and XL665-labeled cortisol. Upon addition of unlabeled cortisol, binding signals will be attenuated due to competitive reaction. Based on this principle, the amount of cortisol generated by the enzyme reaction was evaluated using a standard curve obtained from samples with known concentrations of cortisol included in the kit. The HTRF reaction was performed in 96-well half area microplates as follows: to 30 μl enzyme reaction solution, an anti-cortisol antibody solution (15 μl) and an XL665-labeled cortisol solution (15 μl) included in the kit were added, and the plates were vortexed at room temperature for 1 hour and further allowed to stand at 20° C. for 1 hour. 40 μl of this reaction solution was transferred to 384-well microplates and measured for its fluorescence. 18β Glycyrrhetinic acid was added to wells before initiation of the enzyme reaction and the amount of cortisol generated in these wells was used as a background level. Test compounds were evaluated using serial dilutions at a common ratio of 3 to calculate their IC50 values, assuming that the amount of cortisol generated in wells containing no test compound was set to 100% enzyme activity.
With `O=C(NC1C2CC3CC(C2)CC1C3)N1CCCc2ccccc21` (stereo not drawn) [Compound A-5, N-adamantan-2-yl-3,4-dihydroquinoline-1(2H)-carboxamide] the IC50 was 1.5 nM.
`O=C(N[C@H]1C2CC3CC1C[C@](O)(C3)C2)N1CCc2ccccc21` [Compound A-6, N—[E-1-hydroxyadamantan-4-yl]-2,3-dihydro-1H-indole-1-carboxamide] was tested, and the IC50 was 8.3 nM.
For `CN(C(=O)N1CCCc2ccccc21)[C@H]1C2CC3CC1C[C@](O)(C3)C2` [Compound A-7, N-[E-1-hydroxyadamantan-4-Y^1]-N-methyl-3,4-dihydroquinoline-1(2H)-carboxamide], the IC50 was 9.6 nM.
